Experiments:
Rab10 pThr73 = experiment: Rab10 Thr73 dephosphorylation in LRRK2^R1441C MEFs; format: cell-based; conditions: Mus musculus; dose response, 4 h treatment
Source text: Primary MEFs were generated as described in a previous study (Wiggin et al., Mol. Cell Biol. 2002 April; 22(8):2871-81.). Briefly, the uterine horn was collected from adult female mice at day E12.5 and transferred to a 10 cm tissue culture dish containing cold PBS. Two forceps were used to tear the yolk sacs to isolate each embryo. Forceps were cleaned thoroughly with 70% ethanol between each embryo isolation. The embryos were culled, and a tissue piece was collected in a PCR tube for genotyping. The red tissue of the embryo, which grows to become the heart and liver, was removed. The remainder of the embryo was minced with a scalpel blade and incubated with 7.5 ml trypsin-EDTA solution for 10 minutes in a 37° C. tissue culture CO2 incubator. The dish was removed from the incubator and checked under a light microscope for single cells. 7.5 ml complete media was added to the trypsinised cells, and the cell suspension was transferred to a 15 ml Falcon tube, centrifuged at 1200 rpm for 5 minutes at room temperature. […]
Culturing and passaging of adherent cell lines were carried out using aseptic technique in CL1 or CL2 (for PBMC isolation) biological safety cabinets. […] The cell pellet was discarded, and supernatant was collected for analysis by quantitative immunoblotting. […] Protein concentrations of cell lysates were determined using the Bradford assay. […]

VHL and LRRK2 = target: T1, VHL and LRRK2 (Homo sapiens, UniProt P40337+Q5S007); experiment: NanoBRET ternary complex formation assay; format: binding
T1 construct: host or cells: HEK293 (digitonin-permeabilized), with purified labelled VCB added
Method: VCB was labeled with Bodipy 576/589 following protocol reported previously 76. Briefly, the VCB complex was mixed with Bodipy 576/589 NHS ester in a 20:1 molar ration and incubated at room temperature (protect from light) for 2 h in reaction buffer (0.1 M sodium phosphate, 75 mM KOAc, 2 mM DTT, pH 7.4). The reaction was quenched by diluting 10 times with reaction buffer and the unreacted dye was removed with a PD-10 MiniTrap desalting column (GE Healthcare) equilibrated with 100 mM BisTris pH 7.0, 100 mM NaCl, 1 mM DTT, pH 7. The eluted labeled protein solution was collected and concentrated with Pierce Concentrator, 3K MWCO (Thermo scientific).
Hek293 cells were transfected with LRRK2-NanoLuc vector (Promega, NV3401) for 24 h, harvested, and resuspended into OptiMEM media without phenol red (Life Technologies). The cells were then seeded into white 384-well plate (Corning3570) at a density of 6000 cells/well. […] Each well was added with NanoBRET NanoGlo Substrate (Promega, N2160) before performing the NanoBRET reading on PHERAstar (BMG LABTECH) plate reader equipped with a 450-nm bandpass filter (donor) and a 600-nm long pass filter (acceptor). […]

T1 sequence (Q5S007 whole entry, species assumed): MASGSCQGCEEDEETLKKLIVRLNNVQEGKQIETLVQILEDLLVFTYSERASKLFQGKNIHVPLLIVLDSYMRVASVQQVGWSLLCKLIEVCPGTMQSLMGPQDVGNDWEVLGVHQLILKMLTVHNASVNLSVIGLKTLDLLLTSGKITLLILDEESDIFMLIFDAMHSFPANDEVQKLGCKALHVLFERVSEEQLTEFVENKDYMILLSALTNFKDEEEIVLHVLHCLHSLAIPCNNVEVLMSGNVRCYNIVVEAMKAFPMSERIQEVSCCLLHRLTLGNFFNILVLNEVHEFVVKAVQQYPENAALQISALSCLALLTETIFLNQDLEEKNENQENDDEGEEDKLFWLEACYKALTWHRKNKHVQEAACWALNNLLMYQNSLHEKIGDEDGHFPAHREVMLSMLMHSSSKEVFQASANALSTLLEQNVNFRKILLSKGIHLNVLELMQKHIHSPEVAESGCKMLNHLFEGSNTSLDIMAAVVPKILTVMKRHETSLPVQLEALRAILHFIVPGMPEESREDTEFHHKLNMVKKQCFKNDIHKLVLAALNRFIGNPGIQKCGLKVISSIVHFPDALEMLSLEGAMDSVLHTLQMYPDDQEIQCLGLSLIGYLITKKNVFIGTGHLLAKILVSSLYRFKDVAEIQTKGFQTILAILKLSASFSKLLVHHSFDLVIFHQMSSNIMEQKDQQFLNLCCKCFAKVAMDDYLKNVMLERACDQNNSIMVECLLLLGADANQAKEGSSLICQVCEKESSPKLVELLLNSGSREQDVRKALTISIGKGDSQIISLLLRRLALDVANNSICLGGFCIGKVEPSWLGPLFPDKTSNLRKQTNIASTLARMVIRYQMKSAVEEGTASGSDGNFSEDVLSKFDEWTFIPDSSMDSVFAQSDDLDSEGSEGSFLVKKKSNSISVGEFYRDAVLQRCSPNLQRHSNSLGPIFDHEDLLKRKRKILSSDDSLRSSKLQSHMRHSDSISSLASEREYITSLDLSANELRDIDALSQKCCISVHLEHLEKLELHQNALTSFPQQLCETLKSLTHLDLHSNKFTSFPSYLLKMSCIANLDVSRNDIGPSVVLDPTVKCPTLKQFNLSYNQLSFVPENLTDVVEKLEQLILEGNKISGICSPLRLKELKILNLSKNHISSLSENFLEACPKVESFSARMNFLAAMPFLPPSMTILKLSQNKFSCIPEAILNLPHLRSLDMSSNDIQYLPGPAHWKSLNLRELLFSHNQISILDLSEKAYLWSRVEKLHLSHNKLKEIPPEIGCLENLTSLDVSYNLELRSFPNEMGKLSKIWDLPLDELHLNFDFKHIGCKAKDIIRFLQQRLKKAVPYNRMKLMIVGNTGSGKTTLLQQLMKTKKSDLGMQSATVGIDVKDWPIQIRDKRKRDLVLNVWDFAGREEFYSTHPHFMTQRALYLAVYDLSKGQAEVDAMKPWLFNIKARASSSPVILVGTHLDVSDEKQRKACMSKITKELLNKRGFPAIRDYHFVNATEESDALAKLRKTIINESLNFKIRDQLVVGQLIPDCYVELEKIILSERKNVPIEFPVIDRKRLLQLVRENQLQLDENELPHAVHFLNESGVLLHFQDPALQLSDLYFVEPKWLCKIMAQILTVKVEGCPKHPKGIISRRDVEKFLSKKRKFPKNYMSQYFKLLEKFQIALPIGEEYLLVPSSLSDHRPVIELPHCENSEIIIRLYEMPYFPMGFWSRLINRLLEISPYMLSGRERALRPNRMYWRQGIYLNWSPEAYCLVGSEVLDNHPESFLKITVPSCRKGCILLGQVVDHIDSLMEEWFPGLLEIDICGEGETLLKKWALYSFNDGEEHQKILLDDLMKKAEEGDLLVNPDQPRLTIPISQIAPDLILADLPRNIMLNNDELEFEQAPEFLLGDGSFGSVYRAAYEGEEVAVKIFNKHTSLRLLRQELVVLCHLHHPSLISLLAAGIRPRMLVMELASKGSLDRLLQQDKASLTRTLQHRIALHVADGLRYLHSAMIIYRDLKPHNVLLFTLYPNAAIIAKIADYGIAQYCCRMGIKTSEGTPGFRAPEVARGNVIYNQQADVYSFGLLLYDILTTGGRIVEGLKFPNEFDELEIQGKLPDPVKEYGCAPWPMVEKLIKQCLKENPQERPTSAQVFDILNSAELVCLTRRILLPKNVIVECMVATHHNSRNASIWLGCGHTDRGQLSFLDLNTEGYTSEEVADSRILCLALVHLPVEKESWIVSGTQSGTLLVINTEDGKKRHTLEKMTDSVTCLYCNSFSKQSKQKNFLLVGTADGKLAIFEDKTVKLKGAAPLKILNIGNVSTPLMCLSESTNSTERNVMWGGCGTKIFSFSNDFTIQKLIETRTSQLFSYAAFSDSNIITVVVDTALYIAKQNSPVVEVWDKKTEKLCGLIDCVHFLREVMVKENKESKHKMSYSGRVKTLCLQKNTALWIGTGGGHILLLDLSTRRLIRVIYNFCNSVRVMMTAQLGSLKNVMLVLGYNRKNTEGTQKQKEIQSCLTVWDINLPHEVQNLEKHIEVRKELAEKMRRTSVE
T1 sequence (P40337 54-213 limits assumed, species assumed): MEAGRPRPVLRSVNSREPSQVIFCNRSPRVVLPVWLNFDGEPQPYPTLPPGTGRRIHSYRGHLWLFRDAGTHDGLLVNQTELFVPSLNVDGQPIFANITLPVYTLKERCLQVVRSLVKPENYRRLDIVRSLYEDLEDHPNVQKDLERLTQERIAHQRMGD
T1 sequence (Q15369 17-112 partner limits assumed, species assumed): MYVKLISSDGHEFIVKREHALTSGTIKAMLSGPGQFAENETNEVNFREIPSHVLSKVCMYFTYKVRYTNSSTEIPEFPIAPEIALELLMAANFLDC
T1 sequence (Q15370 1-104 partner limits assumed, species assumed): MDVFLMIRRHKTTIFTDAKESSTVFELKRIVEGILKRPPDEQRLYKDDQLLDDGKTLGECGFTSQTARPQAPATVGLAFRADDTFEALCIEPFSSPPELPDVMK

Row | SMILES | EC50 (Rab10 pThr73) | ternary complex formation with VHL and LRRK2 (in words) (VHL and LRRK2)
1 | CNc1nc(Nc2ccc(C(=O)N3CCN(C[C@H]4CC[C@H](CSC(C)(C)[C@H](NC(=O)C5(F)CC5)C(=O)N5C[C@@H](O)CC5C(=O)NCc5ccc(-c6scnc6C)cc5)CC4)CC3)cc2OC)ncc1Cl (stereo partly drawn) [Cis-XL01126, (2S,4S)-1-((R)-3-((((1r,4R)-4-((4-(4-((5-chloro-4-(methylamino)pyrimidin-2-yl)amino)-3-methoxybenzoyl)piperazin-1-yl)methyl)cyclohexyl)methyl)thio)-2-(1-fluorocyclopropane-1-carboxamido)-3-methylbutanoyl)-4-hydroxy-N-(4-(4-methylthiazol-5-yl)benzyl)pyrrolidine-2-carboxamide] | 158 nM | cannot form ternary complex
2 | CNc1nc(Nc2ccc(C(=O)N3CCN(C[C@H]4CC[C@H](CSC(C)(C)[C@H](NC(=O)C5(F)CC5)C(=O)N5C[C@H](O)CC5C(=O)NCc5ccc(-c6scnc6C)cc5)CC4)CC3)cc2OC)ncc1Cl (stereo partly drawn) [XL01126, (2S,4R)-1-((R)-3-((((1R,4R)-4-((4-(4-((5-chloro-4-(methylamino)pyrimidin-2-yl)amino)-3-methoxybenzoyl)piperazin-1-yl)methyl)cyclohexyl)methyl)thio)-2-(1-fluorocyclopropane-1-carboxamido)-3-methylbutanoyl)-4-hydroxy-N-(4-(4-methylthiazol-5-yl)benzyl)pyrrolidine-2-carboxamide] | 30 nM | highest ternary complex
